What was measured:
[1] = test system: downmodulation of MHC-I molecules expressed on the surface of HIV infected SupT1 cells; test: cells; conditions: for EC50: Human immunodeficiency virus 1, SUP-T1, read-out: EC50 for inhibition of MHC-I downmodulation utilizing the R1 parameter; for activity at 100 µM: Human immunodeficiency virus 1, SUP-T1, read-out: R1 @ 100 μM (R1 value for MHC-I downmodulation as % of the vehicle control)
[2] = in vitro; conditions: human, uninfected SupT1 cells

| SMILES | EC50 [1] | activity at 100 µM [1] | CC50 [2] | CC50 at 48 h [2] |
| --- | --- | --- | --- | --- |
| CC1(C)Cc2cccc(OCC(=O)Nc3nc(C(=O)N4CC(CO)C4)cs3)c2O1 [Compound 153, 2-((2,2-Dimethyl-2,3-dihydrobenzofuran-7-yl)oxy)-N-(4-(3-(hydroxymethyl)azetidine-1-carbonyl)thiazol-2-yl)acetamide] | > 25 µM | 39% | > 90 µM | > 90 µM |
| CC1(C)Cc2cccc(OCC(=O)Nc3nc(C(=O)NCc4ccco4)cs3)c2O1 [Compound 154, 2-(2-((2,2-Dimethyl-2,3-dihydrobenzofuran-7-yl)oxy)acetamido)-N-(furan-2-ylmethyl)thiazole-4-carboxamide] | > 25 µM | 44% | > 100 µM | > 100 µM |
| CC(C)(C)OC(=O)N1CCC(CNC(=O)c2csc(NC(=O)COc3cccc4c3OC(C)(C)C4)n2)C1 (stereo not shown) [Compound 155, tert-Butyl 3-((2-(2-((2,2-dimethyl-2,3-dihydrobenzofuran-7-yl)oxy)acetamido)thiazole-4-carboxamido)methyl)pyrrolidine-1-carboxylate] | > 25 µM | ≥ 100% | > 90 µM | > 90 µM |
| CC1(C)Cc2cccc(OCC(=O)Nc3nc(C(=O)NCC4CCNC4)cs3)c2O1 (stereo not shown) [Compound 156, 2-(2-((2,2-dimethyl-2,3-dihydrobenzofuran-7-yl)oxy)acetamido)-N-(pyrrolidin-3-ylmethyl)thiazole-4-carboxamide] | > 25 µM | 40% | > 90 µM | > 90 µM |
| CC(C)(C)OC(=O)N1CCC(CNC(=O)c2cnc(NC(=O)COc3cccc4c3OC(C)(C)C4)s2)C1 (stereo not shown) [Compound 157, tert-Butyl 3-((2-(2-((2,2-dimethyl-2,3-dihydrobenzofuran-7-yl)oxy)acetamido)thiazole-5-carboxamido)methyl)pyrrolidine-1-carboxylate] | > 25 µM | ≥ 100% | > 90 µM | > 90 µM |
| CCc1cccc(NC(=O)COc2cccc3c2OC(C)(C)C3)n1 [Compound 158, 2-((2,2-Dimethyl-2,3-dihydrobenzofuran-7-yl)oxy)-N-(6-ethylpyridin-2-yl) acetamide] | 13 µM |  |  | > 125 µM |
| Cc1csc(N(Cc2ccccc2)C(=O)COc2cccc3c2OC(C)(C)C3)n1 [Compound 159, N-Benzyl-2-((2,2-dimethyl-2,3-dihydrobenzofuran-7-yl)oxy)-N-(4-methylthiazol-2-yl)acetamide] | 0.18 µM |  |  | > 90 µM |
| CN(C(=O)COc1ccccc1C(F)(F)F)c1nc2c(s1)CCCC2 [Compound 160, N-Methyl-N-(4,5,6,7-tetrahydrobenzo[d]thiazol-2-yl)-2-(2-(trifluoromethyl)phenoxy)acetamide] | 0.28 µM |  |  | > 125 µM |
| CN(C(=O)COc1ccccc1OC(F)(F)F)c1nc2c(s1)CCCC2 [Compound 161, N-Methyl-N-(4,5,6,7-tetrahydrobenzo[d]thiazol-2-yl)-2-(2-(trifluoromethoxy)phenoxy)acetamide] | 0.15 µM |  |  | > 125 µM |
| CN(C(=O)COc1cccc2c1OC(C)(C)C2)c1nc2c(s1)CCC2 [Compound 162, N-(5,6-Dihydro-4H-cyclopenta[d]thiazol-2-yl)-2-((2,2-dimethyl-2,3-dihydrobenzofuran-7-yl)oxy)-N-methylacetamide] | 0.027 µM |  |  | 124 µM |
| CC1(C)Cc2cccc(OCC(=O)Nc3ccc4c(n3)CCC4)c2O1 [Compound 163, N-(6,7-dihydro-5H-cyclopenta[b]pyridin-2-yl)-2-((2,2-dimethyl-2,3-dihydrobenzofuran-7-yl)oxy)acetamide] | 0.37 µM |  |  | > 125 µM |
| CC1(C)Cc2cccc(OCC(=O)Nc3nc4c(s3)COCC4)c2O1 [Compound 175, N-(6,7-Dihydro-4H-pyrano[4,3-d]thiazol-2-yl)-2-((2,2-dimethyl-2,3-dihydrobenzofuran-7-yl)oxy)acetamide] | 1.2 µM |  |  | 10 µM |
| O=C(COc1cccc2c1OCCO2)Nc1nc2ccccc2s1 [Compound 176, N-(Benzo[d]thiazol-2-yl)-2-((2,3-dihydrobenzo[b][1,4]dioxin-5-yl)oxy) acetamide] | 8.9 µM |  |  | > 100 µM |
| Cc1ccc(NC(=O)COc2cccc3c2OC(C)(C)C3)nc1 [Compound 177, 2-((2,2-Dimethyl-2,3-dihydrobenzofuran-7-yl)oxy)-N-(5-methylpyridin-2-yl) acetamide] | 0.24 µM |  |  | > 100 µM |
| CC1(C)Cc2cccc(OCC(=O)Nc3cccc4cccnc34)c2O1 [Compound 178, 2-((2,2-Dimethyl-2,3-dihydrobenzofuran-7-yl)oxy)-N-(quinolin-8-yl) acetamide] | > 25 µM | 20% | > 25 µM | > 25 µM |
| Cc1ccnc(NC(=O)COc2cccc3c2OC(C)(C)C3)n1 [Compound 179, 2-((2,2-Dimethyl-2,3-dihydrobenzofuran-7-yl)oxy)-N-(4-methylpyrimidin-2-yl)acetamide] | > 25 µM |  |  | > 100 µM |
| Cc1csc(N(C(=O)COc2cccc3c2OC(C)(C)C3)c2ccccc2)n1 [Compound 180, 2-((2,2-Dimethyl-2,3-dihydrobenzofuran-7-yl)oxy)-N-(4-methylthiazol-2-yl)-N-phenylacetamide] | 0.028 µM |  |  | > 100 µM |

| SMILES | EC50 [1] | activity at 100 µM [1] | CC50 [2] | CC50 at 48 h [2] |
| --- | --- | --- | --- | --- |
| Cc1csc(NC(=O)COc2cccc3c2OC(C)(C)C3)n1 [Compound 181, 2-((2,2-Dimethyl-2,3-dihydrobenzofuran-7-yl)oxy)-N-(4-methylthiazol-2-yl) acetamide] | 0.62 µM |  |  | > 90 µM |
| Cc1cnc(NC(=O)COc2cccc3c2OC(C)(C)C3)s1 [Compound 182, 2-((2,2-Dimethyl-2,3-dihydrobenzofuran-7-yl)oxy)-N-(5-methylthiazol-2-yl) acetamide] | 0.37 µM |  |  | 69 µM |
| CC1(C)Cc2cccc(OCC(=O)Nc3nc4ccc(F)cc4s3)c2O1 [Compound 183, 2-((2,2-Dimethyl-2,3-dihydrobenzofuran-7-yl)oxy)-N-(6-fluorobenzo[d]thiazol-2-yl)acetamide] | 4.2 µM |  |  | > 100 µM |
| Cc1cccc2sc(NC(=O)COc3cccc4c3OC(C)(C)C4)nc12 [Compound 184, 2-((2,2-Dimethyl-2,3-dihydrobenzofuran-7-yl)oxy)-N-(4-methylbenzo[d]thiazol-2-yl)acetamide] | 3.3 µM |  |  | > 90 µM |
| Cc1nc(NC(=O)COc2cccc3c2OC(C)(C)C3)sc1C [Compound 185, 2-((2,2-Dimethyl-2,3-dihydrobenzofuran-7-yl)oxy)-N-(4,5-dimethylthiazol-2-yl)acetamide] | 0.2 µM |  |  | > 90 µM |
| COc1ccccc1OCC(=O)Nc1nc(C)c(C)s1 [Compound 186, N-(4,5-Dimethylthiazol-2-yl)-2-(2-methoxyphenoxy)acetamide] | ≥ 25 µM | 18% | > 100 µM | > 100 µM |
| COc1ccccc1OCC(=O)Nc1nc2ccccc2s1 [Compound 187, N-(Benzo[d]thiazol-2-yl)-2-(2-methoxyphenoxy)acetamide] | ≥ 25 µM | 45% | > 100 µM | > 100 µM |
| COc1ccccc1OCC(=O)Nc1nc2c(Cl)cccc2s1 [Compound 188, N-(4-Chlorobenzo[d]thiazol-2-yl)-2-(2-methoxyphenoxy)acetamide] | ≥ 10 µM | 37% | > 100 µM | > 100 µM |
| COc1ccccc1OCC(=O)Nc1nc2c(C)cccc2s1 [Compound 189, 2-(2-Methoxyphenoxy)-N-(4-methylbenzo[d]thiazol-2-yl)acetamide] | > 25 µM | 39% | > 100 µM | > 100 µM |
| COc1ccccc1OCC(=O)Nc1nc(C)cs1 [Compound 190, 2-(2-Methoxyphenoxy)-N-(4-methylthiazol-2-yl)acetamide] | > 25 µM | 34% | > 100 µM | > 100 µM |
| COc1ccccc1OCC(=O)Nc1nc2cc(C)c(C)cc2s1 [Compound 191, N-(5,6-Dimethylbenzo[d]thiazol-2-yl)-2-(2-methoxyphenoxy)acetamide] | > 25 µM | 62% | > 100 µM | > 100 µM |
| COc1ccccc1OCC(=O)Nc1nc2c(F)cccc2s1 [Compound 192, N-(4-Fluorobenzo[d]thiazol-2-yl)-2-(2-methoxyphenoxy)acetamide] | 1.8 µM |  |  | > 10 µM |
| COc1ccccc1OCC(=O)Nc1nc2c(Br)cccc2s1 [Compound 193, N-(4-Bromobenzo[d]thiazol-2-yl)-2-(2-methoxyphenoxy)acetamide] | > 25 µM | 58% | > 90 µM | > 90 µM |
| COc1ccccc1CCC(=O)Nc1nc2c(s1)CCCC2 [Compound 194, 3-(2-Methoxyphenyl)-N-(4,5,6,7-tetrahydrobenzo[d]thiazol-2-yl) propanamide] | 1.7 µM |  |  | 125 µM |
| CC1(C)Cc2cccc(OCC(=O)Nc3nc4c(s3)CCCC4)c2O1 [Compound 195, 2-((2,2-Dimethyl-2,3-dihydrobenzofuran-7-yl)oxy)-N-(4,5,6,7-tetrahydrobenzo[d]thiazol-2-yl)acetamide] | 0.053 µM |  |  | > 125 µM |
| COc1ccccc1OCC(=O)Nc1nc2cc(F)ccc2s1 [Compound 196, N-(5-Fluorobenzo[d]thiazol-2-yl)-2-(2-methoxyphenoxy)acetamide] | > 25 µM | 31% | > 100 µM | > 100 µM |
